Data as given in patent US4613355A, “Antibiotic having herbicidal activity” (Satoshi Omura, priority 1983, dated 1986).
≈ marks a conversion by molar mass, not a printed value.

Legend:
Rumex obtusifolius = experiment: Foliage treatment with different salts (Example 11); format: in vivo; design: key: 0 indicates no effect; 5 indicates complete kill; conditions: Rumex obtusifolius (Plant No. 14), 1000 liter per hectare
Experimental: Aqueous solutions containing different salts of Phosalacine at different concentrations as active ingredients and 0.1% of octylphenylpolyoxy ethanol as surfactant were applied at a rate of 1000 liter per hectare to Rumex obtusifolius (Plant No. 14) at a certain stage of growth. 21 days after foliage treatment, damage to the plant was visually assessed on a scale of 0 to 5 as hereinbefore described. The salts used were prepared by the methods described in the reference mentioned above.

Killifishes (Medaka) = experiment: Acute toxicity to fish, survival ratio (Example 13); format: in vivo; conditions: for Survival ratio (%): killifish, 100 ppm
Experimental: Killifishes (Japanese name, Medaka), were obtained from a market and maintained in a water bath at 25±2° C. for a week. Then the fishes (each group consisting of 10 fishes) were placed in water baths containing the test compounds at given concentrations as shown in the following Table. 24 and 48 hours after this, the survival ratio (%) of each group was visually counted to assess the acute toxity.

Mucor racemosus KF223 = experiment: MIC by agar dilution method; format: cell-based; conditions: medium B Dextrose Czapek' medium
Cryptomeria japonica = experiment: Foliage treatment of woody plants (Example 10); format: in vivo; conditions: in vivo
Excerpt: (§1) Aqueous solutions containing Phosalacine (Na salt) at different concentrations and 0.1% of octylphenylpolyoxy ethanol as surfactant were applied at a rate of 1500 liter per hectare to woody plants of about 60-70 cm in height. 7 and 14 days after the foliage treatment, damage to the plants was visually assessed on a scale of from 0 to 5 (cf. Example 7).

Chamaecyparis obtusa = experiment: Foliage treatment of woody plants (Example 10); format: in vivo; conditions: even when applied at a concentration of 0.5%
Excerpt: as §1

various plants = experiment: Inhibition of regrowth one month after foliage treatment (Example 8); format: in vivo; conditions: visually assessed, compared with SF-1293
Experimental: Aqueous solutions of Phosalacine (Na salt) at different concentrations were applied at a rate of 1500 liters per hectare to naturally occurring plants or plants which were cultured on plates as shown in the following Table at certain stages of growth. The Phosalacine applied contained 0.1% of octylphenylpolyoxy ethanol as surfactant. 7 and 14 days after the foliage treatment, damage to the plants was visually assessed on a scale of from 0 to 5 where 0 indicates no effect and 5 indicates complete kill. […] One month after the foliage treatment, the inhibition of regrowth of the plants was visually investigated.
One month after the foliage treatment, the inhibition of regrowth of the plants was visually assessed.

Aspergillus niger KF105 = experiment: MIC by agar dilution method; format: cell-based; conditions: medium B Dextrose Czapek' medium
[1] = Acute toxicity in mice per os, body weight (Example 14); format: in vivo, Mice ICR (RJ) strain; conditions: for Body weight: 500 mg/kg per os
Experimental: Mice [ICR (RJ) strain; female; 6 weeks after birth; each group consisting of 10 mice] were used as test animals to investigate the acute toxity of Phosalacine in mice. A 1% aqueous solution (free acid) was forcibly administered per os to each animal and the body weight of each animal was measured 7 and 14 days after administration. Separately, a similar test was effected by administering Phosalacine (free acid) at a dose of 100 mg/kg.

Erwinia aroideae KB148 = experiment: MIC by agar dilution method; format: cell-based; conditions: medium A Davis's minimal medium (pH 7.0)
[2] = system: Staphylococcus aureus KB210; experiment: MIC by agar dilution method; format: cell-based; conditions: medium A Davis's minimal medium (pH 7.0)
[3] = system: Klebsiella pneumoniae KB214; experiment: MIC by agar dilution method; format: cell-based; conditions: medium A Davis's minimal medium (pH 7.0)
Escherichia coli KB176 = experiment: MIC by agar dilution method; format: cell-based; conditions: medium A Davis's minimal medium (pH 7.0)
Micrococcus luteus KB212 = experiment: MIC by agar dilution method; format: cell-based; conditions: medium A Davis's minimal medium (pH 7.0)
Proteus vulgaris KB127 = experiment: MIC by agar dilution method; format: cell-based; conditions: medium A Davis's minimal medium (pH 7.0)
[4] = Physico-chemical characteristics: acid/base nature; format: physicochemical
[5] = system: Staphylococcus aureus KB199; experiment: MIC by agar dilution method; format: cell-based; conditions: medium A Davis's minimal medium (pH 7.0)
Bacillus cereus KB143 = experiment: MIC by agar dilution method; format: cell-based; conditions: medium A Davis's minimal medium (pH 7.0)
Candida albicans KFl = experiment: MIC by agar dilution method; format: cell-based; conditions: medium B Dextrose Czapek' medium
Piricularia oryzae KF180 = format: cell-based; conditions: medium B Dextrose Czapek' medium
Escherichia coli KB213 = experiment: MIC by agar dilution method; format: cell-based; conditions: medium A Davis's minimal medium (pH 7.0)
Excerpt: The minimum inhibitory concentrations (MIC values) of Phosalacine were investigated in conventional manner by the agar dilution method and the results are indicated in the following Table, from which it is apparent that Phosalacine is active against various Gram-positive and Gram-negative bacteria and fungi.
[Notes: A . . . Davis's minimal medium (pH 7.0), B . . . Dextrose Czapek'

Bacillus subtilis KB211 = experiment: MIC by agar dilution method; format: cell-based
Digitaria adscendens = experiment: Foliage treatment of seedlings in pots (Example 7); format: in vivo; conditions: 10 days after foliage treatment, 1000 liter per hectare
Experimental: Upland soil was put in a pot of 10 cm diameter and the seeds of Digitaria adscendens were sown in the soil at a depth of 1 cm from the surface. When the height of the seedlings was about 10 cm, aqueous solutions of the test compounds as shown in the following Table were uniformly sprayed on the plants at a rate of 1.2 ml per plant, equivalent to 1000 liter per hectare. 10 days after the foliage treatment, damage to plants was visually assessed on a scale of from 0 to 10, where 0 indicates no effect and 10 indicates complete kill.

CC(C)CC(NC(=O)C(C)NC(=O)C(N)CCP(C)(=O)[O-])C(=O)[O-].[K+].[K+] (centres unmarked) [Di Ka salt]
Damage to plants after 21 days, scale 0 to 5 (Rumex obtusifolius; 0.05%): 3
Damage to plants after 21 days, scale 0 to 5 (Rumex obtusifolius; 0.1%): 5

CC(C)CC(NC(=O)C(C)NC(=O)C(N)CCP(C)(=O)[O-])C(=O)[O-].[Na+].[Na+] (centres unmarked) [Di Na salt]
Damage to plants after 21 days, scale 0 to 5 (Rumex obtusifolius; 0.05%): 3
Damage to plants after 21 days, scale 0 to 5 (Rumex obtusifolius; 0.1%): 5

CPCC[C@H](N)C(=O)O (stereo partly drawn) [L-2-amino-4-methylphosphino butyric acid, reference compound]
Survival ratio (%) (Killifishes (Medaka); 24 hours): 0%
Survival ratio (%) (Killifishes (Medaka); 48 hours): 0%

CC(C)CC(NC(=O)C(C)NC(=O)C(N)CCP(C)(=O)O)C(=O)O.CC(C)N (centres unmarked) [Mono isopropylamine salt]
Damage to plants after 21 days, scale 0 to 5 (Rumex obtusifolius; 0.05%): 3
Damage to plants after 21 days, scale 0 to 5 (Rumex obtusifolius; 0.1%): 5

CC(C)CC(NC(=O)C(C)NC(=O)C(N)CCP(C)(=O)O)C(=O)O.CCCCN (centres unmarked) [Mono n-butylamine salt]
Damage to plants after 21 days, scale 0 to 5 (Rumex obtusifolius; 0.05%): 3
Damage to plants after 21 days, scale 0 to 5 (Rumex obtusifolius; 0.1%): 5

CC(C)C[C@H](NC(=O)[C@H](C)NC(=O)[C@@H](N)CCP(C)(=O)O)C(=O)O [Phosalacine, phosphinothricyl-alanyl leucine]
MIC (Mucor racemosus KF223): 6.25 µg/mL (≈ 17.1 µM)
herbicidal activity against Cryptomeria japonica (Cryptomeria japonica): relatively low herbicidal activity
herbicidal activity against Chamaecyparis obtusa (Chamaecyparis obtusa): not herbicidally active
inhibition of regrowth of the plants (various plants): equal or superior to that of SF-1293
MIC (Aspergillus niger KF105): > 100 µg/mL
Body weight ([1]; After 0 days): 23.9 g
Body weight ([1]; After 7 days): 24.5 g
Body weight ([1]; After 14 days): 26.2 g
change of body weight ([1]; dose of 100 mg/kg): No significant change of body weight
acute toxity to mice ([1]; per os): very low
MIC (Erwinia aroideae KB148): < 0.05 µg/mL
MIC [2]: 0.4 µg/mL (≈ 1.09 µM)
MIC [3]: 25 µg/mL (≈ 68.4 µM)
MIC (Escherichia coli KB176): 25 µg/mL (≈ 68.4 µM)
MIC (Micrococcus luteus KB212): 6.25 µg/mL (≈ 17.1 µM)
MIC (Proteus vulgaris KB127): 25 µg/mL (≈ 68.4 µM)
Acid/base nature [4]: Amphoteric
MIC [5]: 0.2 µg/mL (≈ 0.547 µM)
MIC (Bacillus cereus KB143): 0.4 µg/mL (≈ 1.09 µM)
acute toxity against fish, comparison (Killifishes (Medaka); fish): less than that of glyphosate and SF-1293
MIC (Candida albicans KFl): > 100 µg/mL
MIC (Piricularia oryzae KF180): 0.1 µg/mL (≈ 0.274 µM)
MIC (Escherichia coli KB213): 12.5 µg/mL (≈ 34.2 µM)
MIC (Bacillus subtilis KB211; Bacillus subtilis KB211, medium A Davis's minimal medium (pH 7.0)): 0.4 µg/mL (≈ 1.09 µM)
Effect of glutamine on activity against Bacillus subtilis (Bacillus subtilis KB211; synthetic media): competitively antagonised by glutamine

CC(C)C[C@H](NC(=O)[C@H](C)NC(=O)[C@@H](N)CCP(C)(=O)O)C(=O)O.CCNCC [monodiethylamine salt]
damage to plants, scale 0 to 10 (Digitaria adscendens; Concentration 0.01 ppm): 5 (50)
damage to plants, scale 0 to 10 (Digitaria adscendens; Concentration 0.03 ppm): 10 (100)
damage to plants, scale 0 to 10 (Digitaria adscendens; Concentration 0.1 ppm): 10 (100)
